In brackets after ≈: the same amount, converted by molar mass.
Key:
[1] = system: Mycobacterium tuberculosis; assay: Antimicrobial activity against Mycobacterium tuberculosis H37Rv after 11 days using [14]C labeled palmitic acid as substrate by radiometric Bactec 460TB method; format: functional; conditions: 264 h
[2] = system: Mycobacterium tuberculosis; assay: Antimicrobial activity against Mycobacterium tuberculosis H37Rv after 4 weeks by agar dilution assay; format: functional; conditions: 672 h
[3] = system: Mycobacterium tuberculosis; assay: Antimicrobial activity against replicating Mycobacterium tuberculosis; format: functional
[4] = system: Mycobacterium tuberculosis; assay: Antimicrobial activity against non-replicating Mycobacterium tuberculosis; format: functional
[5] = Cytotoxicity against african green monkey Vero cells after 72 hrs by resazurin assay; format: cell-based; conditions: chlorocebus sabaeus
[6] = system: Mycobacterium tuberculosis; assay: Ratio of NTZ MIC to compound MIC for Mycobacterium tuberculosis H37Rv; format: functional
[7] = Selectivity index, ratio of CC50 african green monkey Vero cells to MIC for Mycobacterium tuberculosis H37Rv; format: functional

CN[C@@H]1[C@H](O[C@H]2[C@H](O[C@H]3[C@H](O)[C@@H](O)[C@H](N=C(N)N)[C@@H](O)[C@@H]3N=C(N)N)O[C@@H](C)[C@]2(O)C=O)O[C@@H](CO)[C@H](O)[C@H]1O [STREPTOMYCIN]
MIC [1]: 6 µM (≈ 3.49 µg/mL)

NNC(=O)c1ccncc1 [ISONIAZID]
MIC [2]: < 1 µg/mL

O=C(Nc1ncc([N+](=O)[O-])s1)c1ccccc1O [TIZOXANIDE]
MIC [3]: 60.4 µM (≈ 16 µg/mL)
MIC [4]: 60.4 µM (≈ 16 µg/mL)

COc1ccc(-c2csc(N/N=C/c3cn(Cc4ccc(Cl)cc4Cl)c4ccccc34)n2)cc1OC
MIC [2]: > 12.5 µg/mL

COc1ccc(-c2csc(N/N=C3/CCCc4c(OC)cccc43)n2)cc1OC
CC50 at 72 h [5]: > 244 µM
MIC [1]: 6.25 µM (≈ 2.56 µg/mL)
fold change (FC) [6]: 3
MIC [2]: 6.25 µg/mL (≈ 15.3 µM)
Ratio [7]: >=39

COc1cccc2c1CCC/C2=N/Nc1nc(-c2cccc([N+](=O)[O-])c2)cs1
fold change (FC) [6]: 2
MIC [2]: 12.5 µg/mL (≈ 31.7 µM)

COc1ccc(-c2csc(Nc3cc(OC)ccc3OC)n2)cc1
MIC [2]: > 12.5 µg/mL

Clc1ccc(Cn2cc(/C=N/Nc3nc(-c4ccc(Cl)cc4Cl)cs3)c3ccccc32)c(Cl)c1
MIC [2]: 12.5 µg/mL (≈ 22.9 µM)

CC(=O)Oc1ccccc1C(=O)Nc1ncc([N+](=O)[O-])s1 [NITAZOXANIDE]
MIC [3]: 52.1 µM (≈ 16 µg/mL)
MIC [4]: 52.1 µM (≈ 16 µg/mL)

COc1cccc2c1CCC/C2=N/Nc1nc(-c2ccc(F)cc2)cs1
CC50 at 72 h [5]: > 300 µM
MIC [1]: 6.25 µM (≈ 2.3 µg/mL)
fold change (FC) [6]: 3
MIC [2]: 6.25 µg/mL (≈ 17 µM)
Ratio [7]: >=48

Fc1ccc(-c2csc(N/N=C/c3cn(Cc4ccc(Cl)cc4Cl)c4ccccc34)n2)cc1
MIC [2]: > 12.5 µg/mL

COc1ccc(-c2csc(Nc3ccccc3C(F)(F)F)n2)cc1OC
MIC [2]: > 12.5 µg/mL

COc1ccc(OC)c(Nc2nc(-c3cccc([N+](=O)[O-])c3)cs2)c1
MIC [2]: > 12.5 µg/mL

COc1ccc(-c2csc(Nc3ccccc3C(F)(F)F)n2)cc1
MIC [2]: > 12.5 µg/mL

COc1cccc2c1CCC/C2=N/Nc1nc(-c2ccc(Cl)cc2Cl)cs1
fold change (FC) [6]: 2
MIC [2]: 12.5 µg/mL (≈ 29.9 µM)

Fc1ccc(Nc2nc(-c3ccc(F)cc3)cs2)cc1
MIC [1]: 12.5 µM (≈ 3.6 µg/mL)
fold change (FC) [6]: 9
MIC [2]: 1.8 µg/mL (≈ 6.24 µM)

COc1ccc(OC)c(Nc2nc(-c3ccc(F)cc3)cs2)c1
MIC [2]: > 12.5 µg/mL

O=[N+]([O-])c1cccc(-c2csc(Nc3ccccc3C(F)(F)F)n2)c1
MIC [2]: > 12.5 µg/mL

Fc1ccc(-c2csc(Nc3ccccc3C(F)(F)F)n2)cc1
MIC [2]: > 12.5 µg/mL

From ChEMBL document CHEMBL1828542, “Synthesis and biological evaluation of substituted 4-arylthiazol-2-amino derivatives as potent growth inhibitors of replicating Mycobacterium tuberculosis H₃₇Rv” (Bioorg Med Chem Lett, 2011)
